These results are taken from paper doi:10.1101/2022.03.07.483284v1 (biorxiv, 2022).

As usually defined, the IC50 is the point on the concentration scale where inhibition reaches its midpoint. Read a high IC50 as weaker potency in that assay. The term inhibition denotes the percentage by which the read-out fell short of the control.

Molecules are shown by their SMILES.

The first assay has as its target T1, WTapPOL (intact exonuclease domain) (Plasmodium falciparum, UniProt Q8ILY1).
T1 sequence (Q8ILY1 1389-2016): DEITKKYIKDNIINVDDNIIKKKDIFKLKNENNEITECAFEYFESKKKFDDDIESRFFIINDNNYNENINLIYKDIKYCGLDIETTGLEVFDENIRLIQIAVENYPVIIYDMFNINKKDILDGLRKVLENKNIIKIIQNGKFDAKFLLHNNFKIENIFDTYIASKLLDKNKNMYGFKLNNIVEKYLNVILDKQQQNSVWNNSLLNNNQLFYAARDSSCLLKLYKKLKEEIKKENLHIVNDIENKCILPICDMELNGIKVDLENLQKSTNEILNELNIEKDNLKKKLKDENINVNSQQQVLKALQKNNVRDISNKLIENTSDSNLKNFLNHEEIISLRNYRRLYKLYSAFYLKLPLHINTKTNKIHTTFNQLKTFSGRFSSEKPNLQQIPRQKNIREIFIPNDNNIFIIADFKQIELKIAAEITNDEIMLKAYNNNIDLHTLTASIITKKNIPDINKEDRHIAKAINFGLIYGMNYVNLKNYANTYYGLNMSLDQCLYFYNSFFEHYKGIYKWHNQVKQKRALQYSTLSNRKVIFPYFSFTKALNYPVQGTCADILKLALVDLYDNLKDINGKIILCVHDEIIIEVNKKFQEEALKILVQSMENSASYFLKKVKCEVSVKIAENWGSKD
Description: […]'-5' exonuclease assay, 2-aminopurine release from blunt-ended dsDNA. Format: biochemical.
Settings: not given
`CC(C)(C)c1ccc(S(=O)(=O)Nc2c3c(nn2-c2cccc(Cl)c2)CSC3)cc1` [6a] returned a 50% inhibitory concentration (IC50) of 40 ± 5.7 µM.

As to `CC(C)(C)c1ccc(S(=O)(=O)Nc2c3c(nn2-c2ccc(C(F)(F)F)cc2)CSC3)cc1` [6f], half-maximal inhibition (IC50) required 16 ± 0.9 µM.

In turn, `CC(C)(C)c1ccc(S(=O)(=O)Nc2c3c(nn2-c2ccc(Cl)cc2)CSC3)cc1` [6b] showed an IC50 of 21 ± 2.5 µM.

`CC(C)(C)c1ccc(S(=O)(=O)Nc2c3c(nn2-c2cccc(C(F)(F)F)c2)CSC3)cc1` [6e] returned a half-maximal inhibitory concentration (IC50) of 41 ± 6.7 µM.

In a further assay the target is T1, WTapPOL (intact exonuclease domain). The assay is described as above. It counts as biochemical. The following applies: read-out: % inhibition at 100 μM.
In the case of `CC(C)(C)c1ccc(NC(=O)Nc2c3c(nn2-c2cccc(Cl)c2)COC3)cc1` [13a], the inhibition at 100 µM was less than 50%.

As for `CC(C)(C)c1ccc(NC(=O)Nc2c3c(nn2-c2ccc(Cl)cc2)CSC3)cc1` [7b], the inhibition at 100 µM is less than 50%.

With `CC(C)(C)c1ccc(NC(=O)Nc2c3c(nn2-c2cccc(C(F)(F)F)c2)CSC3)cc1` [7e], the inhibition at 100 µM was less than 50%.

For `CC(C)(C)c1ccc(C(=O)Nc2c3c(nn2-c2cccc(Cl)c2)CSC3)cc1` [5a, MMV666123], the inhibition at 100 µM was less than 50%.

As to `CC(C)(C)c1ccc(NC(=O)Nc2c3c(nn2-c2cccc(Cl)c2)CSC3)cc1` [7a], the inhibition at 100 µM is less than 50%.
